Source: patent US20170191057A1, “RNA EDITING BIOMARKERS FOR DIAGNOSIS, PHARMACOLOGICAL SCREENING AND PROGNOSTICATION IN CANCER” (REGENTS OF THE UNIVERSITY OF CALIFORNIA, priority 2014, published 2017)

Experiments:
[1] = system: ADAR1; assay: qRT-PCR of total ADAR1 levels after 8-azaadenosine treatment; assay type: cell-based, human; conditions: cord blood, ABM, and blast crisis cells; FIG. 21A
Procedure: (A) 8-azaadenosine treatment results in reduced total ADAR1 levels by qRT-PCR, and (B) decreased RNA editing in APOBEC3D (Sites 1 & 2) by direct sequencing.
Cell lines, lentivirus-transduced primary hematopoietic cells, or FACS-purified primary cells were harvested in lysis buffer (Qiagen). RNA was purified using RNeasy extraction kits with a DNase (Qiagen) incubation step to digest any trace genomic DNA present. For RNA extraction from cell line lysates, 1-2×10^6 cells were extracted using RNeasy mini columns, and for primary cells, 5-10×10^4 cells were lysed and extracted using RNeasy micro columns. Genomic DNA was purified from equal numbers of cells lysed separately using the QIAamp DNA Blood Mini Kit (Qiagen) including an RNase A incubation step to digest any RNA present (Qiagen). RNA was stored at −80° C. and gDNA stored at −20° C. Immediately prior to reverse transcription of RNA samples, nucleic acid concentrations were quantified on a NanoDrop 2000 spectrophotometer (Thermo Scientific), and purity was considered acceptable if A260/A280 values were >1.8. […]

[2] = system: RNA editing in APOBEC3D (Sites 1 & 2); assay: Direct sequencing of CSC-specific RNA editing biomarkers in APOBEC3D after 8-azaadenosine treatment; assay type: cell-based, human
Procedure: As proof-of-concept that small molecule inhibitors could block RNA editing activity, CD34^+ cells from a CML blast crisis patient were treated with vehicle or 1 μM 8-azaadenosine (Veliz et al., JACS 2003) for 24 hours and co-cultured on humanized bone marrow stromal cells (SL/M2) for 5 days. […] Thus, RESSq-PCR and RNA editing inhibitors is an allele-specific diagnostic assay that can be used for detection of primate-specific RNA editing events in cancer stem cells.
For PCR and targeted Sanger sequencing analysis, 1-2 μL of first-strand cDNA templates were prepared for PCR in 25-50 μL reaction volumes using the high-fidelity KOD Hot Start DNA Polymerase kit according to the manufacturer's instructions (EMD Millipore, Temecula, Calif.). “Outer” primers (Additional file 2: Table S2) used for sequencing produce predicted amplicons of approximately 150-250 nucleotides in length, and flank each editing site with approximately 50-100 bp on either side of the editing site to facilitate successful sequencing analysis. […] Sequence chromatograms were analyzed using 4Peaks (by A. Griekspoor and Tom Groothuis) and peak heights calculated using ImageJ (NIH). For RNA editing analysis of sequencing chromatograms, ratios of edited/WT peaks were calculated using the raw peak amplitude of each sequence trace.

Q: What does the source list for `Nc1ncnc2c1nnn2[C@@H]1O[C@H](CO)[C@@H](O)[C@H]1O` [8-azaadenosine]?
A: total ADAR1 levels by qRT-PCR [1]: reduced; edit/wild-type sequence ratios of two CSC-specific RNA editing biomarkers in APOBEC3D ([2]; CD34+ cells from a CML blast crisis patient, 1 μM for 24 hours vs vehicle, co-cultured on SL/M2 stromal cells for 5 days): reduction; RNA editing in APOBEC3D (Sites 1 & 2) by direct sequencing ([2]; cord blood, ABM, and blast crisis cells, FIG. 21B): decreased
